From article PMC5827777, “Synthesis and biological evaluation of RGD and isoDGR peptidomimetic-α-amanitin conjugates for tumor-targeting” (Beilstein Journal of Organic Chemistry, 2018)
Like-named read-outs stand apart in the source and are kept apart here.

What was measured:
[1] = tested on: αVβ3 positive and αVβ3 negative cell line; parameters: method as in PMID 28449309; conditions: αVβ3 positive vs αVβ3 negative cell line; cited from earlier work
αVβ5 receptor [2] = experiment: Inhibition of biotinylated vitronectin binding to αVβ5 receptor; conditions: ratio of IC50 values of Table 1
αVβ5 receptor [3] = biological target: αVβ5 receptor; parameters: method as in PMID 22517378, PMID 23424096; conditions: free ligands, Table 1; mean ± SD of triplicate determinations; read-out: IC50 αVβ5, inhibition of biotinylated vitronectin binding; cited from earlier work
αVβ5 = tested on: αVβ5; parameters: method as in PMID 28074920; conditions: read-out: IC50 αVβ5 binding; cited from earlier work
α5β1 = tested on: α5β1; parameters: method as in PMID 28074920; conditions: read-out: IC50 α5β1 binding; cited from earlier work
αVβ3 = tested on: αVβ3; parameters: method as in PMID 28074920; conditions: read-out: IC50 αVβ3 binding; cited from earlier work
[4] = tested on: U87 cells (human glioblastoma, αVβ3+); experiment: cells; format: cell-based; conditions: 96 hours treatment; triplicate; read-out: IC50 U87 (αVβ3+), inhibition of cell viability
Protocol: (§1) The cell lines were treated with different concentrations of the free drug α-amanitin and conjugates 7–11 for 96 hours. […]
(§2) described recently.[S1] The SNP profiles matched known profiles or were unique. The purity of the cell lines was validated using the Multiplex cell Contamination Test by Multiplexion (Heidelberg, Germany) as described recently.[S2] No mycoplasma, SMRV or interspecies contamination was detected. U87-MG, MDA-MB 468 and A549 cells were cultivated continuously for not more than 3 months in MEM Eagle´s, DMEM or Ham´s F12 medium, respectively, supplemented with 10% heat inactivated fetus calf serum, L-glutamine and antibiotics. Cell lines were maintained at 37 °C and 5% CO2 in a high humidity atmosphere.
(§3) Cell therapy and viability assay
(§4) Cell viability assays were performed in U87-MG, A549 and MDA-MB 468 cell lines according to the following procedure: 2 × 10^3 cells/well were plated in 96-well black clear bottom plates (Perkin Elmer) and incubated overnight. 1:5 serial dilutions of compounds 7–11 were prepared in cell culture media. The compounds were added to the cell culture and incubated for additional 96 h. Starting concentration of compounds 7–11 in the wells was 1 × 10−5 M and cell viability was determined with the CellTiterGlo 2.0 assay (Promega) in accordance to manufacturer’s instructions. The cell viability was calculated in relation to the non-treated controls for each cell line. All samples were measured in triplicate. Data analysis was carried out using software GraphPad Prism (GraphPad Software Inc., La Jolla, CA, USA).
Competition experiment of compounds 10 and 11
The competition experiment s were performed in U87-MG and MDA-MB 468 cell lines according to the following procedure: 2 × 10^3 cells/well were plated in 96-well black clear bottom plates (Perkin Elmer) and incubated overnight. A solution containing 1 × 10−4 M of the conjugates 10 or 11 and 5 × 10−3 M of cilengitide (50-fold excess of ligand in comparison to the conjugate) was prepared in the growth medium and 1:5 serial dilutions were prepared in cell culture media. The compounds were added to cell culture and incubated for 96 h. The starting concentration of the compounds in the wells was 0.01 mM whereas that of cilengitide was 0.5 mM. The cell viability was determined with the CellTiterGlo 2.0 assay (Promega) in accordance to manufacturer’s instructions and the viability was calculated in relation to the non-treated controls for each cell line. All samples were measured in triplicate. Data analysis was carried out using software GraphPad Prism (GraphPad Software Inc., La Jolla, CA, USA).
(§5) [S1] F. Castro, W. G. Dirks, S. Fähnrich, A. Hotz-Wagenblatt, M. Pawlita, M. Schmitt, Int. J. Cancer […]
(§6) [S2] M. Schmitt, M. Pawlita, Nucleic Acids Res. 2009, 37, e119.

[5] = biological target: T1, Recombinant human integrin αVβ3 (Homo sapiens, UniProt P05106+P06756); experiment: Inhibition of biotinylated vitronectin binding to purified αVβ3 receptor (solid phase receptor binding assay); conditions: conjugates, Table 2; mean ± SD of triplicate determinations
T1 construct: purchased R&D Systems, Minneapolis, MN, USA
T1 sequence (P06756 31-992 limits assumed): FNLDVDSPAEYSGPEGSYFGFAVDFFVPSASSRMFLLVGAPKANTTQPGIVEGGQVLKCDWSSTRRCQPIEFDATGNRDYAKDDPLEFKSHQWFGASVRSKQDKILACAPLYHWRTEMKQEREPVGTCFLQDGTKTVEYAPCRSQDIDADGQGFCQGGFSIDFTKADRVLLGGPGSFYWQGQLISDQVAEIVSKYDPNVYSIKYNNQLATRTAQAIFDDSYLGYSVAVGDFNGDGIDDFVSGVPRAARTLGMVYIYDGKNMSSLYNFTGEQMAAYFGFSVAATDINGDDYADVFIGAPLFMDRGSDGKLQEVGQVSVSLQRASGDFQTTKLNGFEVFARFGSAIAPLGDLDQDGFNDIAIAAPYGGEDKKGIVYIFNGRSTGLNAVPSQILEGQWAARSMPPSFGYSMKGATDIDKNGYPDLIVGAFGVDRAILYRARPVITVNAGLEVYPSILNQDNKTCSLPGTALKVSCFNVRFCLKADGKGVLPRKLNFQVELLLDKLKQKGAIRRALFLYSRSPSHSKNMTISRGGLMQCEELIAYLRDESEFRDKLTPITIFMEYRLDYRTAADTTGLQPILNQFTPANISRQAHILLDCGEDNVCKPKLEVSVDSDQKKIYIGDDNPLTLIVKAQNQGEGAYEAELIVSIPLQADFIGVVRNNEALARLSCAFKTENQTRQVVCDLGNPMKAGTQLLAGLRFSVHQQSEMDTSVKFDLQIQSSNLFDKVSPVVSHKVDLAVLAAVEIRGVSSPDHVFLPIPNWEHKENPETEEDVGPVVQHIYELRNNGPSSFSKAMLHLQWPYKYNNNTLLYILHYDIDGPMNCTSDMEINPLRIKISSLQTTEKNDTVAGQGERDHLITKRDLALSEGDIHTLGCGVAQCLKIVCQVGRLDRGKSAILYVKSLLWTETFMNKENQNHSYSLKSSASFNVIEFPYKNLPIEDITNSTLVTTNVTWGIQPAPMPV
T1 sequence (P05106 27-718 limits assumed): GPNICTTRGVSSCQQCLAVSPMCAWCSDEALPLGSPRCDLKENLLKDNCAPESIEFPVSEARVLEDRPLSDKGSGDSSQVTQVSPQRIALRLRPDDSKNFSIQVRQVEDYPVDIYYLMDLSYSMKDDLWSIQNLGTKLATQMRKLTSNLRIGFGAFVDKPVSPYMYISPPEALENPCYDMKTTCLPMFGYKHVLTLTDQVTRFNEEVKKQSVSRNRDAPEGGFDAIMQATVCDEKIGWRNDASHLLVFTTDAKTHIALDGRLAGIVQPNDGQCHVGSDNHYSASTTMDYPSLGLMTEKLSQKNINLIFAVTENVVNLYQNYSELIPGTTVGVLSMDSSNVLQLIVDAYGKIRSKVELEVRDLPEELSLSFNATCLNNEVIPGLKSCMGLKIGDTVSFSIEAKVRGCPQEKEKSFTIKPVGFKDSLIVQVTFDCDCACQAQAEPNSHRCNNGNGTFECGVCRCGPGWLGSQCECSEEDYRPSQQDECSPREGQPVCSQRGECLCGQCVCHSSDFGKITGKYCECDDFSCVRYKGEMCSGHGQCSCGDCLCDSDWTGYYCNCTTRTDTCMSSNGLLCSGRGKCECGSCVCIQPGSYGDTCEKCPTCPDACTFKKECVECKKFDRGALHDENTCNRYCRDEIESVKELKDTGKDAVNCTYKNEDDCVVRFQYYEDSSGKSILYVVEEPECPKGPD
Protocol: Conjugates 7–11 were evaluated for their ability to inhibit biotinylated vitronectin binding to the purified αVβ3 receptor. Screening assays were performed by incubating the immobilized integrin receptor with solutions of the cyclo[DKP-RGD]-α-amanitin and cyclo[DKP-isoDGR]-α-amanitin conjugates 7–11 at different concentrations (10^−12 to 10^−5 M) in the presence of biotinylated vitronectin (1 µg mL^−1) and measuring bound vitronectin. […]
to assist the dissolution). The solution obtained was filtered (polypropylene, 0.45 μm, 13 mm ø, PK/100) and injected in the HPLC, affording purified products. Purity analyses were carried on a Dionex Ultimate 3000 instrument equipped with a Dionex RS Variable Wavelenght detector (column: Atlantis® Prep T3 OBDTM 5 μm 19 × 100 mm). The analyte (1 mg) was dissolved in 1 mL of H2O and was injected using the same gradient used in the purification step. The analysis of the integrals and the relative percentage of purity were performed with the software Chromeleon 6.80 SR11 Build 3161. Also, preparative HPLC LaPrep∑ equipped with autosampler AS3950 and a Phenomenex Luna C-18(2) column, 10 µm, 250 × 21.2 mm, with precolumn at 30 mL/min flow rate and analytical HPLC performed on Hitachi Chromaster (column oven Chromaster 5310, pump Chromaster 5110, autosampler Chromaster 5210, DAD Chromaster 5430) equipped with a Phenomenex Luna C-18(2) column, 10 µm, 250 × 4.6 mm, with precolumn at 1.4 mL/min flow rate were used. Freeze-drying: The product was dissolved in water and frozen with dry ice. The freeze-drying was carried out at least for 48 h at −50 °C using the instrument 5Pascal Lio5P DGT.
Solid phase receptor binding assays
Recombinant human integrin αVβ3 (R&D Systems, Minneapolis, MN, USA) was diluted to 0.5 µg/mL in coating buffer containing 20 mM Tris-HCl (pH 7.4), 150 mM NaCl, 1 mM MnCl2, 2 mM CaCl2, and 1 mM MgCl2. […] Absorbance at 415 nm was read in a SynergyTM HT Multi-Detection Microplate Reader (BioTek Instruments, Inc.). […]

[6] = tested on: MDA-MB-468 cells (breast adenocarcinoma, αVβ3−); experiment: cells; format: cell-based; conditions: 96 hours treatment; triplicate; read-out: IC50 MDA-MB-468 (αVβ3−), inhibition of cell viability
Protocol: as §1, §2, §3
as §4, with “USA). […]” for “USA).”
as §5, §6

[7] = biological target: T1, Recombinant human integrin αVβ3; parameters: method as in PMID 22517378, PMID 23424096; conditions: free ligands, Table 1; mean ± SD of triplicate determinations; read-out: IC50 αVβ3, inhibition of biotinylated vitronectin binding; cited from earlier work

For `CC(=O)O[C@H]1C(=O)[C@@]2(C)[C@H]([C@H](OC(=O)c3ccccc3)[C@]3(O)C[C@H](OC(=O)[C@H](OC(=O)N(C)CCN(C)C(=O)OCc4ccc(NC(=O)[C@H](C)NC(=O)[C@@H](NC(=O)CCCC(=O)NCc5ccc(CN6C(=O)[C@H]7CC(=O)N[C@H](C(=O)O)CC(=O)NCC(=O)N[C@@H](CCCNC(=N)N)C(=O)NC[C@H]6C(=O)N7)cc5)C(C)C)cc4)[C@@H](NC(=O)c4ccccc4)c4ccccc4)C(C)=C1C3(C)C)[C@]1(OC(C)=O)CO[C@@H]1C[C@@H]2O` [Conjugate 6, cyclo[DKP-isoDGR]-Val-Ala-PTX], the “targeting index (TI)” value [1] is listed as 9.9.
For `N=C(N)NCCC[C@@H]1NC(=O)C[C@H]2NC(=O)[C@H](CNC(=O)[C@H](CC(=O)O)NC(=O)CNC1=O)N(Cc1ccccc1)C2=O` [Ligand 1, cyclo[DKP-RGD]], the “selectivity for αVβ3 in comparison with integrin αVβ5” value (αVβ5 receptor [2]) is given as 33–34 times and the IC50 (αVβ5 receptor [3]) is given as 149 ± 25 nM.
In the case of cilengitide, the IC50 (αVβ5) is listed as 8.4 nM, the IC50 (α5β1) is listed as 14.9 nM and the IC50 (αVβ3) is listed as 0.6 nM.
For `CC[C@H](C)[C@@H]1NC(=O)CNC(=O)[C@@H]2Cc3c([nH]c4cc(OCCCCCCNC(=O)CCCC(=O)NCc5ccc(CN6C(=O)[C@H]7CC(=O)N[C@@H](CCCNC(=N)N)C(=O)NCC(=O)N[C@@H](CC(=O)O)C(=O)NC[C@H]6C(=O)N7)cc5)ccc34)[S+]([O-])C[C@H](NC(=O)CNC1=O)C(=O)N[C@@H](CC(N)=O)C(=O)N1C[C@H](O)C[C@H]1C(=O)N[C@@H]([C@@H](C)[C@@H](O)CO)C(=O)N2` (stereo partly drawn) [Compound 7, cyclo[DKP-RGD]-uncleavable-α-amanitin], the IC50 [4] was 2550 ± 37.6 nM, the IC50 [5] was 11.6 ± 2.4 nM and the IC50 [6] was 1110 ± 228 nM.
In the case of `CC(=O)O[C@H]1C(=O)[C@@]2(C)[C@H]([C@H](OC(=O)c3ccccc3)[C@]3(O)C[C@H](OC(=O)[C@H](OC(=O)N(C)CCN(C)C(=O)OCc4ccc(NC(=O)[C@H](C)NC(=O)[C@@H](NC(=O)CCCC(=O)NCc5ccc(CN6C(=O)[C@H]7CC(=O)N[C@@H](CCCNC(=N)N)C(=O)NCC(=O)N[C@@H](CC(=O)O)C(=O)NC[C@H]6C(=O)N7)cc5)C(C)C)cc4)[C@@H](NC(=O)c4ccccc4)c4ccccc4)C(C)=C1C3(C)C)[C@]1(OC(C)=O)CO[C@@H]1C[C@@H]2O` [Conjugate 5, cyclo[DKP-RGD]-Val-Ala-PTX], the “targeting index (TI)” value [1] is given as 2.4.
For `N=C(N)NCCC[C@@H]1NC(=O)CNC(=O)C[C@@H](C(=O)O)NC(=O)C[C@H]2NC(=O)[C@H](CNC1=O)N(Cc1ccccc1)C2=O` [Ligand 3, cyclo[DKP-isoDGR]], the “selectivity for αVβ3 in comparison with integrin αVβ5” value (αVβ5 receptor [2]) is listed as 33–34 times, the IC50 (αVβ5 receptor [3]) is listed as 312 ± 21 nM and the IC50 [7] is listed as 9.2 ± 1.1 nM.
Molecule `CC[C@H](C)[C@@H]1NC(=O)CNC(=O)[C@@H]2Cc3c([nH]c4cc(OCCCCCCNC(=O)CCCC(=O)NCc5ccc(CN6C(=O)[C@H]7CC(=O)N[C@H](C(=O)O)CC(=O)NCC(=O)N[C@@H](CCCNC(=N)N)C(=O)NC[C@H]6C(=O)N7)cc5)ccc34)[S+]([O-])C[C@H](NC(=O)CNC1=O)C(=O)N[C@@H](CC(N)=O)C(=O)N1C[C@H](O)C[C@H]1C(=O)N[C@@H]([C@@H](C)[C@@H](O)CO)C(=O)N2` (stereo partly drawn) [Compound 8, cyclo[DKP-isoDGR]-uncleavable-α-amanitin] has an IC50 [4] of 3355 ± 19.1 nM, an IC50 [5] of 6.8 ± 4.3 nM and an IC50 [6] of 2200 ± 96.2 nM.
